For data set [1], the system named is human erythrocytes. Briefly: Back extraction of dilauroyl phospholipids from human erythrocytes with DOPC vesicles. The class given is cell-based. How it is done:
(§1) Timecourse of erythrocyte shape change (MI) induced by suspensions of C-DLPS (200 μM, open circles, open triangles) and DLPC (200 μM, open squares) in HBS. After 15 min (arrow), one sample of cells (open circles) was centrifuged, resuspended in citrate buffer (100 mM, pH 5.5) and re-incubated at 37° C. At 15 or 75 min, aliquots of each sample were removed and treated with DOPC vesicles (20 mM, 5% HCT) for 15 min at 37° C. (closed symbols). At the indicated times aliquots were fixed with glutaraldehyde and analyzed by light microscopy.
Back extraction of dilauroyl phospholipids from human erythrocytes. Washed red blood cells were incubated with DLPS, DLPC, or C-DLPS (200 μM) in HBS at 50% HCT for 90 min at 37° C. After 15 min, an aliquot of the cells was removed and the short chain phospholipids in the outer monolayer were back extracted with sonicated DOPC vesicles (20 mM) in HBS at 5% HCT for 15 min at 37° C. A separate aliquot of C-DLPS-treated cells was removed at 15 min, centrifuged, resuspended in citrate buffer (pH 5.5), and reincubated at 37° C. After 60 min, an aliquot from the cells incubated at low pH was removed and the short chain phospholipids remaining in the outer monolayer were back extracted with DOPC. Two additional control experiments were performed: 1] DLPC (200 μM) was incorporated into cells as described above for 15 min and then back extracted with DOPC vesicles, and 2] cells without exogenously added lipid were incubated with DOPC vesicles under the conditions of the back extraction assay. In each of the forgoing experiments aliquots were removed at the prescribed time points and the morphological index was determined by light microscopy.

Data set [2] concerns human erythrocytes. Briefly: Erythrocyte shape change (morphological index): incorporation, uncaging and transport of lipid. The data set is classed as cell-based. The procedure:
(§2) A. Timecourse of erythrocyte shape change (morphological index) induced in washed human erythrocytes by C-DOPS liposomes (200 μM) incubated in HBS. At 45 min (arrow), one set of cells was centrifuged, resuspended in citrate buffer (100 mM, pH 5.5) and re-incubated at 37° C. (open circles). Aliquots were fixed with glutaraldehyde and analyzed by light microscopy. B. Low pH-induced cleavage of C-DOP^3 HS in human erythrocytes. Washed human red cells were treated with C-DOP^3 HS (55 nCi) for 45 min at 37° C. in HBS. After centrifugation, the cells were resuspended in citrate buffer (pH 5.5) and reincubated at 37° C. At the indicated timepoints, lipids were extracted from aliquots of cells, C-DOP^3 HS and DOP^3 HS were separated by thin layer chromatography, and radiolabeled lipids were quantitated by scintillation counting.
Washed human erythrocytes were incubated with sonicated suspensions of DLPS (200 μM, open circles, filled circles) or DLPC (200 μM, open squares) in citrate buffer pH 5.5 (open symbols) or in HBS (filled symbols) at 37° C. Aliquots were fixed with glutaraldehyde and analyzed by light microscopy.
as §1
Cells. Human erythrocytes were obtained from healthy adult volunteers by venipuncture and collected into EDTA (3.3 mM final concentration). Erythrocytes were pelleted by centrifugation (5 min, 3000 g), washed three times in Hepes buffered saline (HBS, 118 mM NaCl, 50 mM Hepes, 5 mM KCl, 1 mM MgSO4, 5 mM glucose, pH 8.25), and stored on ice at 50% hematocrit (HCT).
Phosphatidylserine transport assay. Previously washed erythrocytes were pelleted by centrifugation (5 min, 3000 g) and incubated at 50% HCT with sonicated DLPS, DLPC, C-DLPS, or C-DOPS vesicles (200 μM) in HBS according to the method of Daleke and Huestis (1985). At prescribed time points, the cells were fixed by adding 5 μL aliquots to 50 μL of glutaraldehyde (0.5%). Aliquots of fixed cells were examined by light microscopy for changes in cell morphology. Echinocytes were assigned scores of +1 to +5 based on the degree of […], discocytes were scored 0, and stomatocytes were given scores of -1 to -4 based on their degree of […] (Daleke & Huestis, 1989). Echinocytic shapes are indicative of cells with excess lipid in the outer monolayer, while stomatocytic shapes are indicative of cells with excess inner monolayer lipid (Sheetz & Singer, 1974). Thus, cell morphology can be used to measure the movement of exogenously added lipids from the outer to the inner monolayer. The average score of a field of 100 cells is defined as the morphological index (MI).
Hydrolysis of C-DOPS in human erythrocytes. Washed red blood cells were incubated with sonicated C-DOPS vesicles (200 μM) in HBS at 50% HCT for 45 min at 37° C. After 45 min (C-DOPS), the cells were centrifuged (16,000 g, 5 min) and the supernatant was removed. The cells were washed once with a citrate buffer (50 mM, 300 mOsM, pH 5.25) and then incubated at 20% HCT for varying lengths of time in citrate buffer. […] The final pH of the red cell suspensions in HBS was 7.58±0.02 and those suspensions in citrate buffer was 5.72±0.03 pH units. The values were corrected for temperature (37° C.). At the specified time points, an aliquot of cells was fixed and examined by light microscopy.

Data set [3] can be described thus: pH-dependent cleavage of caged aminophospholipids (MLVs, 1 h, 37° C., phosphate analysis of TLC-separated lipids). The class given is physicochemical. The note with it: for cleavage at pH 3: after extended incubation at pH 3; for significant cleavage at physiologically desirable pH: pH 5.5-8, 37° C.; for cleavage at any pH: pH 3-8, 1 h, 37° C.; for pH of half-maximal cleavage: 1 h at 37° C. How it is done: Derivatized aminophospholipids (C-DOPS (open circles), C-DOPE (filled circles), M-DOPE (open squares), D-DOPE (filled squares), T-DOPE (open triangles), and P-DOPE (filled triangles), 0.5 mM each) were suspended in citrate (pH 3, 4.5, and 6) or Hepes (pH 7 and 8) buffer and incubated for 1 h at 37° C.
pH-Dependent cleavage measurements. A chloroform solution of the "caged" aminophospholipid (0.1 μmol) being tested was dried under nitrogen and the lipid was resuspended in buffers (200 μL) of varying pH; pH 3 (50 mM citrate), pH 4.5 (50 mM citrate), pH 6 (50 mM citrate), pH 7 (50 mM Hepes), and pH 8 (50 mM Hepes), adjusted to physiological ionic strength (290-310 mOsM) with NaCl. Solutions were vortexed briefly to make multilamellar vesicles (MLVs) and placed in a shaking water bath for 1 h at 37° C. The reaction was quenched after 1 h with a Hepes buffer (0.5M, pH 8.0). The lipid was extracted and the aqueous phase washed twice with chloroform. The derivative was separated from DOPE or DOPS by normal phase silica TLC eluted with CHCl3:CH3OH:NH4OH:H2O (65:25:2.5:2.5). The fraction cleaved was determined by phosphate analysis of the corresponding iodine stained spots. A background measurement, not incubated at 37° C. for 1 h, but subjected to the same extraction and TLC procedures, was performed to correct for hydrolysis that occurred during workup. All measurements were completed in triplicate.
The pH dependence of cleavage of the DOPS and DOPE derivatives was determined by incubating lipid dispersions (MLVs) in buffers of varying pH for 1 h at 37° C. Hydrolysis was measured by phosphate analysis of TLC-separated products.

Data set [4] has as its system human erythrocytes. The data set is described as follows: Cleavage of C-DOP^3 HS in intact human erythrocytes (TLC, scintillation counting). The class given is cell-based. The conditions noted are these: citrate buffer pH 5.5, 37° C. How it is done: as §2
Hydrolysis of C-DOPS in human erythrocytes. […]
Uncaging of the C-DOPS derivative was measured in human red blood cells in order to test the feasibility of using the compound as a probe of aminophospholipid transport in biological membranes. […] Cleavage of C-DOP^3 HS was measured directly in intact erythrocytes. […] Following exchange with citrate buffer (pH 5.5), the cells were incubated at 37° C. and hydrolysis was measured by analysis of extracted lipids separated by thin layer chromatography.

The test system of data set [5] is aminophospholipid transporter, or "flippase". The conditions noted are these: cited from earlier work; for inhibition of flippase: Seigneuret & Devaux, 1984, Daleke & Huestis, 1985, Connor & Schroit, 1987, Bitbol et al.
The conditions of data set [6]: pH 5.5.
Method: In a fourth set of experiments, ethanol (0.05-0.5%), DTT (5 mM), aniline (1.5 mM), p-nitroaniline (1.5 mM), and DOPE (2.5 mM) were added in separate experiments to the incubation buffers as scavengers of the anhydride. The lipid products were extracted and isolated by thin-layer chromatography as described previously. A single time point at 2.5 or 3 h was analyzed. All measurements were completed in triplicate and data were fit to a biexponential equation (f(x)=α1*exp(-x/.tau.1)+α2*exp(-x/.tau.2)) using the program MacCurveFit (Kevin Raner, Mt. Waverley, Australia).
This hypothesis was tested by using nucleophilic scavengers to trap the released anhydride. Both water soluble (dithiothreitol, ethanol) and lipophilic (aniline, p-nitroaniline, and DOPE) scavengers were added to C-DOPS solutions and cleavage was measured at a timepoint when the slow rate of cleavage predominated (Table II).
For data set [7] the following is noted: for time constant tau1 (initial fast component) / time constant tau2 (slow component): biexponential fit; for half-time for cleavage: citrate buffer, pH 5.5.
Method: The extent of cleavage was determined by phosphate analysis of thin layer chromatographic separations of extracted lipids. The solid lines are non-linear least squares fits of the data to a double exponential equation (f(x)=α1*exp(-x/.tau.1)+α2*exp(-x/.tau.2)).
C-DOPE (0.5 mM, column 1) and C-DOPS (0.5 mM, columns 2-5) were suspended in citrate buffer, pH 5.5 (columns 1 and 2) containing Triton X-100 (0.1%, column 3), NaCl (1M, column 4) or egg PC (2.5 mM, column 5) and incubated for 1 h at 37° C. The extent of cleavage was quantitated by phosphate determination of thin layer chromatographic separations of extracted lipids. Kinetic parameters were determined by non-linear least squares fits of the data to a double exponential equation (see FIG. 2): A. Exponential coefficients α1 (open bars) and α2 (filled bars) B. Time constants .tau.1 (open bars) and .tau.2 (filled bars).
Chloroform solutions of C-DOPS or C-DOPE (0.1 μmol) were dried under nitrogen and resuspended in 200 μL of citrate buffer (50 mM, pH 5.5). MLVs were prepared as described above and placed in a shaking water bath at 37° C. At prescribed time points, the reaction was quenched with 50 μL of Hepes buffer (1M, pH 8.5), the lipid was extracted, and the amount of cleavage was determined by phosphate analysis of TLC-separated lipids.
In one set of experiments, the ionic strength of the citrate incubation buffer (pH 5.5) was raised by including 1M NaCl and cleavage was measured as described above. In a second set of experiments, C-DOPS cleavage was measured in the presence of Triton X-100 (0.1%). In a third set of experiments, a five fold excess of DOPC was add to the lipid suspensions to dilute the surface charge. In a fourth set of experiments, ethanol (0.05-0.5%), DTT (5 mM), aniline (1.5 mM), p-nitroaniline (1.5 mM), and DOPE (2.5 mM) were added in separate experiments to the incubation buffers as scavengers of the anhydride. The lipid products were extracted and isolated by thin-layer chromatography as described previously. A single time point at 2.5 or 3 h was analyzed. All measurements were completed in triplicate and data were fit to a biexponential equation (f(x)=α1*exp(-x/.tau.1)+α2*exp(-x/.tau.2)) using the program MacCurveFit (Kevin Raner, Mt. Waverley, Australia).
Setting [8] is: after incorporation in HBS (15 min).
Where [9] appears, read: 200 μM, citrate buffer (pH 5.5), 37° C.

As to `CCCCCCCCCCCC(=O)OCC(COP(=O)([O-])OCC[N+](C)(C)C)OC(=O)CCCCCCCCCCC` (stereo not drawn) [DLPC, dilauroylphosphatidylcholine], in data set [1] (setting [8]), the “cell shape after back extraction with DOPC vesicles” value is “identical results”. In data set [2] (setting [9]), the “time echinocytic shape is retained” value is reported as “more than 1.5 h” and the “time to become echinocytic” value is listed as at most 2 min. Moreover, the “shape changes at higher pH compared with pH 5.5” value in data set [2] (higher pH, data not shown) is “similar”.

Turning to `CCCCCCCC/C=C\CCCCCCCC(=O)OCC(COP(=O)(O)OCCNC(=O)/C=C\C(=O)O)OC(=O)CCCCCCC/C=C\CCCCCCCC` (stereo not drawn) [M-DOPE, N-maleyl-dioleoylphosphatidylethanolamine], in data set [3], the “cleavage at pH 3” value stood at 25% and the “significant cleavage at physiologically desirable pH” value is recorded as “did not occur”.

`CCCCCCCCCCCC(=O)OCC(COP(=O)(O)OCC(N)C(=O)O)OC(=O)CCCCCCCCCCC` (stereo not drawn) [DLPS, dilauroylphosphatidylserine]: the erythrocyte shape change result is “became echinocytic initially but rapidly reverted to stomatocytes” in data set [2] (200 μM, HBS, 37° C.) and “became echinocytic initially but rapidly reverted to stomatocytes” in data set [2] (setting [9]).

In the case of `CCCCCCCCCCCC(=O)OC[C@H](COP(=O)(O)OC[C@H](NC(=O)C(C)=CC(=O)O)C(=O)O)OC(=O)CCCCCCCCCCC` [C-DLPS, N-citraconyl-dilauroylphosphatidylserine], the “cell shape after back extraction with DOPC vesicles” value in data set [1] (15 min in HBS, then low pH for additional 60 min) is “reverted to stomatocytes”; in data set [1] (setting [8]), “reverted to discocytes”. The “transbilayer location of lipid” value in data set [1] (HBS) is given as “remains in the outer monolayer”. Moreover, the “transbilayer location of lipid (portion)” value in data set [1] (citrate buffer (low pH)) is on record as “accumulates in the inner monolayer”.

For the compound “citraconyl-dioleoylphosphatidyl-[3-^3 H]serine [C-DOP^3 HS]”, the “cleavage in erythrocytes compared with model membranes” value in data set [4] was “followed a similar timecourse and extent in erythrocytes as in model membranes”.

In the case of `[O]=[V]([O-])([O-])[O-]` [vanadate], in data set [5], the inhibition of flippase result is “inhibited”.

As to `[Ca+2]` [calcium], the inhibition of flippase result in data set [5] was “inhibited”.

Take “N-3,4,5,6-tetrahydrophthalyl-phosphatidylethanolamine [T-DOPE]”: the “cleavage at any pH” value in data set [3] is recorded as “not cleaved to any appreciable extent”.

With `CCCCCCCC/C=C\CCCCCCCC(=O)OC[C@H](COP(=O)(O)OC[C@H](NC(=O)/C(C)=C\C(=O)O)C(=O)O)OC(=O)CCCCCCC/C=C\CCCCCCCC` [C-DOPS, N-citraconyl-dioleoylphosphatidylserine], the “% cleavage - scavenger” value in data set [6] (citrate buffer, 2.5 h) was 55.2%. Moreover, in data set [6] (dithiothreitol, ethanol, aniline, p-nitroaniline, DOPE), the “effect of scavengers on slower second rate” value is “None of these scavengers attenuated the slower second rate”. Also, the “pH of half-maximal cleavage” value in data set [3] is 6.5 pH. In data set [7] (citrate buffer pH 5.5, 37° C.), the “initial cleavage rate relative to C-DOPE” value was 6 fold, the “time constant tau1 (initial fast component)” value was determined as 0.15 h and the “time constant tau2 (slow component)” value worked out at 4.8 h. Besides, the half-time for cleavage in data set [7] worked out at 85 min. Also, in data set [2] (HBS, 37° C., 200 μM), the “time cells remain echinocytic” value is listed as “more than 1.5 h”. Besides, the “cell shape after exchange of buffer to low pH” value in data set [2] (Hepes buffer exchanged for citrate buffer (pH 5.5)) is “reverted to a more discoid shape”.

Turning to `CCCCCCCC/C=C\CCCCCCCC(=O)OCC(COP(=O)(O)OCCNC(=O)c1ccccc1C(=O)O)OC(=O)CCCCCCC/C=C\CCCCCCCC` (stereo not drawn) [P-DOPE, N-phthalyl-dioleoylphosphatidylethanolamine], in data set [3], the “cleavage at pH 3” value amounted to 25% and the “significant cleavage at physiologically desirable pH” value is on record as “did not occur”.

As to `CCCCCCCC/C=C\CCCCCCCC(=O)OC[C@H](COP(=O)(O)OCCNC(=O)/C(C)=C\C(=O)O)OC(=O)CCCCCCC/C=C\CCCCCCCC` [C-DOPE, N-citraconyl-dioleoylphosphatidylethanolamine], in data set [3], the “pH of half-maximal cleavage” value turned out to be 5.5 pH. In data set [7] (citrate buffer pH 5.5, 37° C.), the “time constant tau1 (initial fast component)” value is given as 0.9 h and the “time constant tau2 (slow component)” value came to 7 h. In data set [7], this compound had a half-time for cleavage of 110 min.

For `CCCCCCCC/C=C\CCCCCCCC(=O)OC[C@H](COP(=O)(O)OCCNC(=O)/C(C)=C(/C)C(=O)O)OC(=O)CCCCCCC/C=C\CCCCCCCC` [D-DOPE, N-dimethylmaleyl-dioleoylphosphatidylethanolamine], the “cleavage at any pH” value in data set [3] was “not cleaved to any appreciable extent”.

Consider phosphatidylserine [PS], for which the “affinity of flippase relative to PE” value in data set [5] (PS versus PE, Zachowski et al., 1986) was “approximately ten-fold”.

(Values after patent US5767298A, “Aminophospholipid compositions and uses thereof” (Indiana University Foundation, priority 1996, dated 1998).)
